Results on five compounds are retold here after article PMC9030166, “Natural Phaeosphaeride A Derivatives Overcome Drug Resistance of Tumor Cells and Modulate Signaling Pathways” (Pharmaceuticals, 2022).

In one test the test system is HCT-116. As to the kind of experiment: MTT cytotoxicity, HCT-116 colorectal cancer cells. It is filed as cell-based, human. Particulars: 48 h; for IC50: Homo sapiens, HCT-116, adhesive tumor culture. The text has this: (§1) Cell cultures used in the work: adhesive cultures HBL-100 cells (cells of a normal mammary gland epithelium, immortalized by the SV40 virus and acquired tumorigenicity); MCF-7 breast cancer cells; PC-3 prostate adenocarcinoma cells; HCT-116 colorectal cancer cells; non-small cell lung cancer cells A549; human embryonic kidney cells HEK293; suspension cultures (NCI-H929 and RPMI8226 multiple myeloma cells), K562 chronic myeloid leukemia cells; THP-1 acute monocytic leukemia cells; and Jurkat acute T-cell leukemia cells. We also used several primary cultures of soft tissue sarcomas at 3–4passeges, kindly provided by T.I. Fetisov (The Ethics Committee of N.N. Blokhin NMRCO, protocol code 18-28-09095 and date of approval 28 September 2018).
(§2) Modifications of cell lines: K562/i-S9 is a clone obtained after transfection of K562 cells with the ABCB1 (MDR1) gene-encoding P-glycoprotein [36]. Cells HBL-100/Dox and K562/i-S9_Dox are cells obtained by long-term selection with increasing concentrations of doxorubicin (Sigma-Aldrich, St. Louis, MO, USA) from HBL-100 and K562/i-S9 cells, respectively. MCF-7, A594 cells, and primary cultures of soft tissue sarcomas were cultured in DMEM medium (PanEko, Russia), PC-3 and HCT-116 cells and all suspension cultures in RPMI1640 medium (PanEko, Russia) supplemented with 10% fetal bovine serum (GE Healthcare LifeSciences, USA), and gentamicin at a concentration of 40 μg/mL at 37 °C and 5% CO2.
(§3) Cells MCF-7, PC-3, A549, and HCT-116, and primary cultures of STSwere seeded in 96-well plates, 6 × 10^3 cells per well in 90 μL of culture medium. Suspension cultures were seeded at a concentration of 25 × 10^3 cells per well in 135 μL of medium. The test substances were dissolved in DMSO (Applichem, Council Bluffs, IA, USA) until a concentration of 1 × 10^−^2 M was obtained; for the subsequent dilution of the substances, a serum-free culture medium was used. The next day, for adhesive cultures, and on the same day, for suspension cultures, substances were added to the plates in a volume of 10 μL (adhesive cultures) and 15 μL (suspension cultures) per well at various concentrations; each concentration was added in 3–4 repetitions. The cells were cultured in the presence of substances for 48 h. Then, MTT reagent (PanEko, Moscow, Russia) was added to the wells at a concentration of 5 mg/mL in a volume of 20 μL per well. After 1.5–2 h, the medium with the reagent was removed, and the precipitate of the crystals of formazan was dissolved in 60 μL of DMSO. The optical density was determined using a Multiskan FC spectrophotometer (Thermo Scientific, Waltham, MA, USA) at a wavelength of 540 nm.
(§4) Based on the results of the experiments, a schedule was plotted of the dependence of the percentage of surviving cells (from control) on the concentration of the compound, and the sought concentration IC50 was calculated. The experiments were carried out in 3–4 times.

For a further test, the system named is MCF-7. As to the kind of experiment: MTT cytotoxicity, MCF-7 breast cancer cells. Format: cell-based. Particulars: Homo sapiens, MCF7, adhesive tumor culture, 48 h.
Excerpt: as §1, §2, §3, §4

The next test deals with RPMI8226. As to the kind of experiment: MTT cytotoxicity, RPMI8226 multiple myeloma cells. Particulars: Homo sapiens, RPMI-8226, suspension culture, 48 h. Format: cell-based.
Excerpt: as §1, §2, §3, §4

A further test concerns A431 cells. As to the kind of experiment: IC50 on A431 cells (xCelligence RTCA cell index). It is filed as cell-based. Particulars: Homo sapiens, A-431. From the text:
A431 cells are characterized by a high inducibility of transcription factors STAT3 and STAT5. In turn, phaeosphaeride A and its derivatives are probably inhibitors of the STAT3 gene. Therefore, the A431 cell line was chosen as a model for searching for possible targets for the action of phaeosphaeride A derivatives. Table 7 presents IC50 data for phaeosphaeride A derivatives on A431 cells.
(§5) The effect of various concentrations of PPA derivatives on the cell culture was studied using xCelligence RTCA equipment (AceaBioscience, San Diego, CA, USA). The concentration closest to the IC50 (10 μM) was chosen as the experimental concentration. The selected concentration of phaeosphaeride A derivatives allows for the assessment of the early effect of compounds on cells and compares their effectiveness. In this experiment, the signaling pathways Akt (pSer473), p70S6K (pThr412), NFkB (p65-pSer536), and CREB (pSer133) were not activated (Table 8). The stress-activated signaling pathways ERK/MAP kinase 1/2 (pThr185/pTyr187), JNK (pThr183/pTyr185), and p38 (pThr180/pTyr182) were activated for these compounds.
To determine the integral cellular response using the xCelligence RTCA equipment (AceaBioscience, Santa Clara, CA, USA), 20 thousand cells were inoculated into a well of a specialized plate allowing the determination of the cell index in real time and cultured in complete growth medium. The next day after the seeding, the medium was replaced with an experimental one (compounds at concentrations of […]). The cell index was monitored for 3 days after the addition of the xenobiotic. The concentration closest to the IC50 (10 μM) was chosen as the experimental concentration.

The subject of test [1] is ERK 1/2 (pThr185/pTyr187). As to the kind of experiment: MILLIPLEX MAP 9-Plex, ERK 1/2 active form in A431 lysates. It is filed as cell-based, human. Particulars: 10 μM; for ERK ½ (pThr185/pTyr187) fluorescence intensity: A431 cell lysates, 1 h, M ± mx, control 839.7 ± 248.9; for activation of signaling pathway ERK/MAP kinase 1/2 (pThr185/pTyr187), in words: A431 cells.
Excerpt: (§6) We used the MILLIPLEX MAP Multi-Pathway Magnetic Bead 9-Plex-Cell Signaling Multiplex Assay, which allows the simultaneous detection of nine phosphorylated proteins that are markers of the main intracellular signaling pathways (phosphorylation site is indicated in parentheses), a universal transcription factor that controls the expression of immune response genes; apoptosis and cell cycle NFκB (pS536); cAMP-dependent transcription factor (CREB (pS133); mitogen-activated kinase p38 (pT180/pY182); stress-activated protein kinase JNK (pT183/pY185); ribosomal […]; transcription factors STAT3 (pS727) and STAT5A/B (pY694/699); protein kinase B (Akt) (pS473); and kinase regulated by extracellular signals ERK1/2 (pT185/pY187).
as §5
(§7) We used a MILLIPLEX MAP Multi-Pathway Magnetic Bead 9-Plex-Cell Signaling Multiplex Assay kit (Merck/Millipore), according to the manufacturer’s protocol. A431 cells were cultured in DMEM with 10% FBS in 24-well plates. Compounds were added to the subconfluent cells at a concentration of 10 μM in DMEM medium for 1 h. Each compound was added in 5 experimental repeats. Cell lysates were prepared with lysis buffer (Millipore) with protease inhibitors (Complete, Roche); the protein concentration in the lysates was determined by the Lowry method. In samples equalized in protein concentration, the active forms of kinase cascades were determined using a Bio-Plex 200 fluorescent analyzer (Bio-Rad).

In the next test the test system is JNK (pThr183/pTyr185). As to the kind of experiment: MILLIPLEX MAP 9-Plex, JNK active form in A431 lysates. Particulars: 10 μM; for JNK (pThr183/pTyr185) fluorescence intensity: A431 cell lysates, 1 h, M ± mx, control 50.9 ± 10.5; for activation of signaling pathway JNK (pThr183/pTyr185), in words: A431 cells. Format: cell-based, human.
Excerpt: as §6, §5, §7

Consider `C=C1C2=C(C(=O)N1OC)[C@@H](N1CCCC1)[C@@](C)(O)[C@H](CCCCC)O2` [Compound 1], for which the IC50 in the test with HCT-116 worked out at 7.6 ± 0.9 µM; with MCF-7, 3.9 ± 0.8 µM; in the test with RPMI8226, 1.6 ± 0.3 µM; with A431 cells, 3.7 µM. In test [1], the “ERK ½ (pThr185/pTyr187) fluorescence intensity” value is 4650.1 ± 509.0 *↑ rel. units. For the same compound, in the test on JNK (pThr183/pTyr185), the “JNK (pThr183/pTyr185) fluorescence intensity” value is 239.9 ± 23.9 *↑ rel. units.

For the compound `C=C1C2=C(C(=O)N1OC)[C@@H](N(C)C)[C@@](C)(O)[C@H](CCCCC)O2` [Compound 2, (2S,3R,4R)-4-(dimethylamino)-3-hydroxy-6-methoxy-3-methyl-7-methylene-2-pentyl-3,4,6,7-tetrahydropyrano[2,3-c]pyrrol-5(2H)-one], the IC50 is 4.2 ± 0.2 µM in the test on HCT-116, 3 ± 0.8 µM with MCF-7, 1.6 ± 0.5 µM in the test on RPMI8226 and 1.9 µM in the test on A431 cells. Besides, the “ERK ½ (pThr185/pTyr187) fluorescence intensity” value in test [1] is reported as 5074.6 ± 770.1 *↑ rel. units. The “activation of signaling pathway ERK/MAP kinase 1/2 (pThr185/pTyr187), in words” value (“activation … (pThr185/pTyr187), in words” for short) in test [1] is “maximum degree of activation”. In addition, the “JNK (pThr183/pTyr185) fluorescence intensity” value in the test on JNK (pThr183/pTyr185) is listed as 559.2 ± 31.5 *↑ rel. units. In the test on JNK (pThr183/pTyr185), the “activation of signaling pathway JNK (pThr183/pTyr185), in words” value (“activation … (pThr183/pTyr185), in words” for short) was “maximum degree of activation”.

`C=C1C2=C(C(=O)N1OC)[C@@H](N(CCCC)CCCC)[C@@](C)(O)[C@H](CCCCC)O2` [Compound 5, (2S,3R,4R)-4-(dibutylamino)-3-hydroxy-6-methoxy-3-methyl-7-methylene-2-pentyl-3,4,6,7-tetrahydropyrano[2,3-c]pyrrol-5(2H)-one]: the 50% inhibitory concentration (IC50) in the test on HCT-116 is 12 ± 0.9 µM; with MCF-7, 7.4 ± 0.5 µM; with RPMI8226, 6.3 ± 0.3 µM; with A431 cells, more than 50 µM. Also, the “ERK ½ (pThr185/pTyr187) fluorescence intensity” value in test [1] is given as 1880.4 ± 81.7 *↑ rel. units. The “activation … (pThr185/pTyr187), in words” value in test [1] is given as “only slightly activated”. Besides, the “JNK (pThr183/pTyr185) fluorescence intensity” value in the test on JNK (pThr183/pTyr185) is given as 83.1 ± 8.3 *↑ rel. units. Also, the “activation … (pThr183/pTyr185), in words” value in the test with JNK (pThr183/pTyr185) is reported as “only slightly activated”.

Regarding `C=C1C2=C(C(=O)N1OC)[C@@H](N(CC)CCO)[C@@](C)(O)[C@H](CCCCC)O2` [Compound 9, (2S,3R,4R)-4-[ethyl(2-hydroxyethyl)amino]-3-hydroxy-6-methoxy-3-methyl-7-methylene-2-pentyl-3,4,6,7-tetrahydropyrano[2,3-c]pyrrol-5(2H)-one], the half-maximal inhibitory concentration (IC50) in the test with HCT-116 amounted to 3.9 ± 0.1 µM; in the test on MCF-7 it was 2.9 ± 1 µM; in the test on RPMI8226 it was 1.8 ± 0.2 µM; with A431 cells, 4.6 µM. Moreover, the “ERK ½ (pThr185/pTyr187) fluorescence intensity” value in test [1] was 3276.9 ± 700.0 *↑ rel. units. Besides, in the test on JNK (pThr183/pTyr185), the “JNK (pThr183/pTyr185) fluorescence intensity” value is recorded as 117.9 ± 15.1 *↑ rel. units.

As for `CCCCC[C@@H]1OC2=C(C(=O)N(OC)/C2=C\n2cnnc2)C(n2cnnc2)[C@@]1(C)O` (stereo partly drawn) [Compound 10], the “IC50 value, HCT-116” value in the test on HCT-116 (adhesive tumor culture) is recorded as “not active”. The compound further showed an IC50 in the test on MCF-7 of 49 ± 5.3 µM. This compound returned a half-inhibitory concentration (IC50) in the test with RPMI8226 of 51 ± 0.2 µM. Moreover, the IC50 in the test on A431 cells is more than 50 µM. Besides, in test [1], the “ERK ½ (pThr185/pTyr187) fluorescence intensity” value was 1864.9 ± 149.5 *↑ rel. units and the “activation … (pThr185/pTyr187), in words” value was “only slightly activated”. Moreover, in the test on JNK (pThr183/pTyr185), the “JNK (pThr183/pTyr185) fluorescence intensity” value was 157.2 ± 15.4 *↑ rel. units and the “activation … (pThr183/pTyr185), in words” value is “only slightly activated”.
